Drawing on PubChem BioAssay (NCI), this text covers GI50 and TGI for twelve compounds.

Test systems include OVCAR-8 ovarian; HOP-62 NSCLC; UACC-257 melanoma; M14 melanoma; HT29 colon; MOLT-4 leukemia; BT-549 breast; HL-60(TB) leukemia.
Holding throughout (assay): NCI-60 cell line screen, 48 h

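Step 1: Grow cells in 96-well plates. Step 2: Expose to compound for 48 hours at 5 concentrations. Step 3: Interpolate endpoints linearly; if unreached, use highest concentration. Here, GI50 denotes the concentration required for 50% inhibition of growth. TGI denotes the concentration required for complete inhibition of growth.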

For the compound `CCOC(=O)/C=C/C(C(=O)/C=C/c1ccc(O)c(OC)c1)=C(O)\C=C\c1ccc(O)c(OC)c1`, the GI50 is 2.21 µM with OVCAR-8 ovarian; 3.19 µM in the assay with HOP-62 NSCLC; 2.06 µM with UACC-257 melanoma; 2.2 µM in the assay with M14 melanoma; 1.83 µM with HT29 colon; 4.27 µM in the assay on MOLT-4 leukemia. Besides, the TGI with OVCAR-8 ovarian is 5.91 µM; in the assay with HOP-62 NSCLC, 16.1 µM; with UACC-257 melanoma, 4.9 µM; in the assay on M14 melanoma, 5.15 µM; in the assay on HT29 colon, 6.6 µM; with MOLT-4 leukemia, over 100 µM.
As for `COc1ccc(/C=C\c2cc(OC)c(OC)c(OC)c2)cc1OC(=O)CCC(=O)O`, the TGI was over 100 µM in the assay on BT-549 breast; 69.6 µM with OVCAR-8 ovarian; over 100 µM in the assay on HOP-62 NSCLC; 12.2 µM in the assay with HT29 colon; under 0.0001 µM with HL-60(TB) leukemia. Further, the GI50 in the assay with UACC-257 melanoma was under 0.0001 µM.
For the compound `C=C1C(=O)O[C@H]2[C@H]1CC/C(COC(=O)NCCc1c[nH]c3ccc(OC)cc13)=C\CC[C@@]1(C)O[C@@H]21`, the GI50 in the assay on BT-549 breast is 1.4 µM; in the assay with OVCAR-8 ovarian it was 1.97 µM; with HOP-62 NSCLC, 3.49 µM; with UACC-257 melanoma, 1.52 µM; with M14 melanoma, 1.62 µM; in the assay with HT29 colon it was 1.58 µM. Further, in the assay on MOLT-4 leukemia, the GI50 was 2.22 µM. In addition, the TGI came out at 3.13 µM in the assay on BT-549 breast; 5.23 µM in the assay on OVCAR-8 ovarian; 15.7 µM in the assay with HOP-62 NSCLC; 3.3 µM in the assay on UACC-257 melanoma; 3.51 µM in the assay on M14 melanoma; 3.09 µM in the assay with HT29 colon. The TGI with MOLT-4 leukemia came to 5.88 µM.
Take `C=CCC(N[C@H](CO)c1ccccc1)c1cn(C(=O)OCC)c2ccccc12` (some centres undefined): the GI50 with BT-549 breast was 19.8 µM; in the assay on OVCAR-8 ovarian, 13.4 µM; in the assay on HOP-62 NSCLC, 14.5 µM; in the assay with M14 melanoma, 14.3 µM; with HT29 colon it was 31 µM; in the assay on MOLT-4 leukemia, 17.8 µM. Besides, the TGI with BT-549 breast is 39 µM; in the assay on OVCAR-8 ovarian, 27.7 µM; in the assay on HOP-62 NSCLC it was 27.9 µM; with UACC-257 melanoma, 18 µM; in the assay on M14 melanoma, 28.2 µM; in the assay with HT29 colon it was over 100 µM. Moreover, the TGI with MOLT-4 leukemia was 41.6 µM.
`O=C(Cc1cccc(OC(F)(F)F)c1)Nc1ccc(CCCCc2nnc(NC(=O)Cc3ccccn3)s2)nn1`: the GI50 was 27.9 µM in the assay with BT-549 breast; 15.8 µM in the assay with OVCAR-8 ovarian; 29.3 µM with UACC-257 melanoma; 36.3 µM in the assay on M14 melanoma; 24.3 µM with HT29 colon; 5.49 µM in the assay on MOLT-4 leukemia. Moreover, the GI50 with HL-60(TB) leukemia was 8.34 µM. Further, the TGI in the assay on BT-549 breast is over 100 µM; in the assay with OVCAR-8 ovarian, 54.8 µM; with UACC-257 melanoma it was over 100 µM; in the assay with M14 melanoma, over 100 µM; with HT29 colon, 96.7 µM; in the assay on MOLT-4 leukemia it was over 100 µM. In addition, in the assay on HL-60(TB) leukemia, the TGI was over 100 µM.
On to `Cc1ccc(SC2=CC(=O)c3nc4ccccc4c4ccnc2c34)cc1`, for which the GI50 was over 62.9 µM with BT-549 breast; 18 µM in the assay with OVCAR-8 ovarian; 97.9 µM in the assay with HOP-62 NSCLC; 24.7 µM in the assay with UACC-257 melanoma; 51.9 µM in the assay with M14 melanoma; 38 µM with HT29 colon. The GI50 in the assay on MOLT-4 leukemia is 42.8 µM. In addition, the TGI with BT-549 breast was over 100 µM; in the assay with OVCAR-8 ovarian, 41.2 µM; with HOP-62 NSCLC, over 100 µM; in the assay on UACC-257 melanoma, 77.7 µM; in the assay on M14 melanoma, over 100 µM; with HT29 colon, over 100 µM. The TGI in the assay with MOLT-4 leukemia is over 100 µM.
Consider `COC(=O)C1(F)C(=O)NC(=O)NC1O` (centres undefined), for which the TGI with OVCAR-8 ovarian, with HOP-62 NSCLC, in the assay on UACC-257 melanoma, with M14 melanoma, in the assay with HT29 colon and in the assay on MOLT-4 leukemia was over 100 µM in each case. The compound also came in with a TGI in the assay on HL-60(TB) leukemia of over 100 µM.
Turning to `Cc1c2c[n+](C(C)C)ccc2c(C)c2c1[nH]c1ccccc12`, the GI50 in the assay on BT-549 breast was 1.72 µM; with OVCAR-8 ovarian, 1.46 µM; in the assay with HOP-62 NSCLC, 2.35 µM; in the assay on M14 melanoma, 3.77 µM; in the assay on HT29 colon, 3.15 µM; with MOLT-4 leukemia it was 3.28 µM. In addition, in the assay with HL-60(TB) leukemia, the GI50 is 3.13 µM. In addition, the TGI in the assay on BT-549 breast stood at 11.2 µM; in the assay on OVCAR-8 ovarian, 32.1 µM; with HOP-62 NSCLC, 36.1 µM; in the assay on M14 melanoma, 17 µM; in the assay with HT29 colon, 58.8 µM; with MOLT-4 leukemia it was 17.8 µM. In addition, the TGI in the assay with HL-60(TB) leukemia was found to be 19.2 µM.
For the compound `COc1ccccc1C#Cc1ccccc1C#CCCCCCC#Cc1ccccc1C#Cc1ccccc1OC`, the GI50 in the assay with BT-549 breast is over 100 µM; in the assay with OVCAR-8 ovarian, over 100 µM; in the assay on HOP-62 NSCLC it was over 100 µM; in the assay with UACC-257 melanoma it was over 100 µM; in the assay with M14 melanoma it was 48.7 µM; with HT29 colon, 24.6 µM. Moreover, the GI50 with MOLT-4 leukemia is over 100 µM. Moreover, the TGI in the assay on BT-549 breast, in the assay with OVCAR-8 ovarian, with HOP-62 NSCLC, in the assay with UACC-257 melanoma, in the assay with M14 melanoma and in the assay on HT29 colon was over 100 µM each time. For the same compound, the TGI in the assay with MOLT-4 leukemia is over 100 µM.
Consider `COc1cc(-c2nc3sc4c(c3c(=O)[nH]2)CCCCCC4)cc(OC)c1OC`, for which the GI50 with BT-549 breast is 1.26 µM; in the assay on OVCAR-8 ovarian, 1.52 µM; in the assay with HOP-62 NSCLC it was 1.36 µM; in the assay on UACC-257 melanoma, 3 µM; in the assay with M14 melanoma, 0.831 µM; in the assay with MOLT-4 leukemia, 1.86 µM. For the same compound, the GI50 in the assay with HL-60(TB) leukemia was 1.36 µM. Moreover, the TGI with BT-549 breast is 19 µM; in the assay on OVCAR-8 ovarian, over 33.2 µM; with HOP-62 NSCLC, over 33.2 µM; with UACC-257 melanoma, over 33.2 µM; in the assay with M14 melanoma it was over 33.2 µM; with MOLT-4 leukemia, over 33.2 µM. Further, in the assay on HL-60(TB) leukemia, the TGI came out at 13 µM.
As to `CCN1c2ccccc2C(Cl)(c2ccc(N(C)C)cc2)c2ccccc21`, the GI50 with BT-549 breast is 12 µM; in the assay on HOP-62 NSCLC it was 4.27 µM; with M14 melanoma, 5.97 µM; in the assay with HT29 colon it was 2.88 µM; in the assay on MOLT-4 leukemia, 3.27 µM; with HL-60(TB) leukemia, 1.89 µM. For the same compound, the TGI in the assay with BT-549 breast was 29 µM; in the assay on HOP-62 NSCLC it was 17.3 µM; in the assay with M14 melanoma, 20.2 µM; with HT29 colon, 12.4 µM; with MOLT-4 leukemia it was 15.2 µM; in the assay with HL-60(TB) leukemia, 4.7 µM.
With `O=Nc1ccc2ccccc2c1O`, the GI50 in the assay on BT-549 breast is 17.7 µM; in the assay with OVCAR-8 ovarian, 2.67 µM; in the assay with UACC-257 melanoma it was 2.13 µM; with M14 melanoma, 5.07 µM; in the assay with HT29 colon, 3.46 µM. Besides, the TGI was determined as 31.6 µM with BT-549 breast; 6.63 µM in the assay with OVCAR-8 ovarian; 4.19 µM in the assay with UACC-257 melanoma; 16.5 µM with M14 melanoma; 13.4 µM in the assay on HT29 colon.
